Source: patent publication US11512053B2, “Arginine methyltransferase inhibitors and uses thereof” (priority 2013, dated 2022)
Read-outs that look alike come from different tables or passages of the source.

Target: T1, full-length human PRMT3 isoform 1 (GST-tagged) (Homo sapiens, UniProt O60678)
T1 construct: GST-tagged PRMT3; made in house; host or cells: E. coli BL21(DE3) Gold
Assay: PRMT3 Biochemical Assay (3H-SAM Flashplate, peptide substrate)
From the text: General Materials. S-adenosylmethionine (SAM), S-adenosylhomocysteine (SAH), bicine, Tween20, dimethylsulfoxide (DMSO), bovine skin gelatin (BSG),), isopropyl-β-D-thiogalactopyranoside (IPTG), and Tris(2-carboxyethyl)phosphine hydrochloride solution (TCEP) were purchased from Sigma-Aldrich at the highest level of purity possible. ^3H-SAM was purchase from American Radiolabeled Chemicals with a specific activity of 80 Ci/mmol. 384-well streptavidin Flashplates were purchased from PerkinElmer.
Substrates. Peptide containing the classic RMT substrate motif was synthesized with an N-terminal linker-affinity tag motif and a C-terminal amide cap by 21st Century Biochemicals. The peptide was purified by high-performance liquid chromatography (HPLC) to greater than 95% purity and confirmed by liquid chromatography mass spectrometry (LC-MS). The sequence was Biot-Ahx-[…]-amide (SEQ ID NO.:11).
Molecular Biology: Full-length human PRMT3 (NM_005788.3) isoform 1 transcript clone was amplified from an HEK 293 cDNA library and subcloned into pGEX-KG (GE Life Sciences). The resulting construct encodes an N-terminal GST tag and a thrombin cleavage sequence ([…] […] […] […] S) (SEQ ID NO.:12) fused directly to Cys 2 of PRMT3.
Protein Expression. E. coli (BL21(DE3) Gold, Stratagene) made competent by the CaCl2) method were transformed with the PRMT3 construct and ampicillin selection. Protein over-expression was accomplished by growing the PRMT3 expressing E. coli clone and inducing expression with 0.3 mM IPTG at 16° C. The culture was grown for 12 hours, harvested by centrifugation, and stored at −80° C. for purification.
Protein Purification. […] GST-tagged PRMT3 was eluted with 50 mM Tris, 2 mM glutathione, pH 7.1 and 50 mM Tris, 20 mM glutathione, pH 7.1. Pooled fractions were dialysed in 20 mM Tris, 50 mM NaCl, 5% glycerol, 1 mM EDTA, 1 mM DTT, pH7.5 (Buffer B) and applied to a Q Sepharose Fast Flow column. GST-tagged PRMT3 was eluted by 500 mM NaCl in buffer B. Pooled fractions were dialyzed in 25 mM phosphate buffer, 100 mM NaCl, 5% glycerol, 2 mM DTT, pH 6.8 (Buffer C) and loaded on to a ceramic hydroxyapatite column. GST-tagged PRMT3 eluted with 25-400 mM phosphate in buffer C. Protein was concentrated and buffer was exchanged to 20 mM Tris, 150 mM NaCl, 5% glycerol, 5 mM β-mercaptoethanol, pH7.8 by ultrafiltration. The purity of recovered protein was 70%.
General Procedure for PRMT3 Enzyme Assays on Peptide Substrates. The assays were all performed in a buffer consisting of 20 mM Bicine (pH=7.6), 1 mM TCEP, 0.005% BSG, and 0.002% Tween 20, prepared on the day of use. Compounds in 100% DMSO (1 ul) were spotted into a polypropylene 384-well V-bottom plates (Greiner) using a Platemate Plus outfitted with a 384-channel head (Thermo Scientific). DMSO (1 ul) was added to Columns 11, 12, 23, 24, rows A-H for the maximum signal control and 1 ul of SAH, a known product and inhibitor of PRMT3, was added to columns 11, 12, 23, 24, rows I-P for the minimum signal control. A cocktail (40 ul) containing the PRMT3 enzyme was added by Multidrop Combi (Thermo-Fisher). The compounds were allowed to incubate with PRMT3 for 30 min at room temperature, then a cocktail (10 ul) containing SAM and peptide was added to initiate the reaction (final volume=51 ul). The final concentrations of the components were as follows: PRMT3 was 0.5 nM, ^3H-SAM was 100 nM, non-radiolabeled SAM was 1.8 uM, peptide was 330 nM, SAH in the minimum signal control wells was 1 mM, and the DMSO concentration was 2%. The assays were stopped by the addition of potassium chloride (10 ul) to a final concentration of 100 mM. 50 ul of the reaction in the 384-well polypropylene plate was then transferred to a 384-well Flashplate and the biotinylated peptides were allowed to bind to the streptavidin surface for at least 1 hour before being washed once with 0.1% Tween20 in a Biotek ELx405 plate washer. […]

T1 sequence (O60678 with tags, fused parts or gaps): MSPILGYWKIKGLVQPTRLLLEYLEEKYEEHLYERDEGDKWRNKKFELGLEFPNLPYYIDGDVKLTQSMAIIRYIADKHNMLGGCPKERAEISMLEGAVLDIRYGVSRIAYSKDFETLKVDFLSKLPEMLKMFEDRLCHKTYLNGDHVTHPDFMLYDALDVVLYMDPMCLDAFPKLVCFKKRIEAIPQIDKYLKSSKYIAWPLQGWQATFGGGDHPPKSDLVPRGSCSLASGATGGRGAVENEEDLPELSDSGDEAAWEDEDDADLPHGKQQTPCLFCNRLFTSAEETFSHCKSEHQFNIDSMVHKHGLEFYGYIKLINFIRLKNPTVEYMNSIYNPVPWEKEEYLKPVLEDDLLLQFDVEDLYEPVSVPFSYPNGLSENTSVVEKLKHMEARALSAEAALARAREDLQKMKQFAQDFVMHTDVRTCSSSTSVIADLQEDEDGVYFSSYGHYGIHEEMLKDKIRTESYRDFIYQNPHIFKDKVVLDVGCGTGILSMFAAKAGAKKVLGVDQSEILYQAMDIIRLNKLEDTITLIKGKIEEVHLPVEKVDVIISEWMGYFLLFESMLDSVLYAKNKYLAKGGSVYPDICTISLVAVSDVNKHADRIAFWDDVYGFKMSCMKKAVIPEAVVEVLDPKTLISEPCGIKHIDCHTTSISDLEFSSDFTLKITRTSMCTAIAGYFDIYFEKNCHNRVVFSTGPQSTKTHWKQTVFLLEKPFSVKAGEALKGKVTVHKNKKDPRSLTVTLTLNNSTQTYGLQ

CN(CCN)Cc1c[nH]nc1CCc1ccccc1 [Compound 9]
IC50: 3.01 to 10 µM | IC50 (single experiment or average of multiple experiments): 8.93 µM
